System: MV-4-11 cells
Assay: Gene expression microarray analysis (Affymetrix PrimeView) and GSEA
Type: cell-based, human
Design: RFU PODN (11730768_x_at) / Fold change /veh PODN (11730768_x_at) / RFU LINC00158 (11744669_a_at) / Fold change /veh LINC00158 (11744669_a_at) / RFU DUSP10 (11751237_a_at) / Fold change /veh DUSP10 (11751237_a_at) / RFU ID3 (11757404_x_at) / Fold change /veh ID3 (11757404_x_at) / RFU PLEKHG5 (11737974_s_at) / Fold change /veh PLEKHG5 (11737974_s_at) / RFU LRRC4B (11730491_at) / Fold change /veh LRRC4B (11730491_at) / RFU GIMAP4 (11747438_a_at) / Fold change /veh GIMAP4 (11747438_a_at) / RFU KRT8 (11758183_x_at) / Fold change /veh KRT8 (11758183_x_at) / RFU CNN1 (11734310_a_at) / Fold change /veh CNN1 (11734310_a_at) / RFU VPS37D (11726825_at) / Fold change /veh VPS37D (11726825_at) / RFU C10orf10 (11716522_x_at) / Fold change /veh C10orf10 (11716522_x_at) / RFU KIR2DL2 /// KIR2DL4 /// KIR2DL5A /// KIR2DL5B /// KIR2DS1 /// KIR2DS2 /// KIR2DS3 /// KIR2DS4 /// KIR3DL3 /// KIR3DL3 /// KIR3DS1 (11738374_at) / Fold change /veh KIR2DL2 /// KIR2DL4 /// KIR2DL5A /// KIR2DL5B /// KIR2DS1 /// KIR2DS2 /// KIR2DS3 /// KIR2DS4 /// KIR3DL3 /// KIR3DL3 /// KIR3DS1 (11738374_at) / RFU C1QL1 (11718748_at) / Fold change /veh C1QL1 (11718748_at) / RFU TMPRSS4 (11747572_a_at) / Fold change /veh TMPRSS4 (11747572_a_at) / RFU HAMP (11756126_x_at) / Fold change /veh HAMP (11756126_x_at) / RFU RNFT2 (11725882_a_at) / Fold change /veh RNFT2 (11725882_a_at) / RFU NR4A2 (11747474_a_at) / Fold change /veh NR4A2 (11747474_a_at) / RFU ABCC12 (11746883_a_at) / Fold change /veh ABCC12 (11746883_a_at) / RFU TMEM136 (11760407_x_at) / Fold change /veh TMEM136 (11760407_x_at) / RFU CLDN22 /// WWC2 (11732394_at) / Fold change /veh CLDN22 /// WWC2 (11732394_at) / RFU HLA-DPB1 (11760878_x_at) / Fold change /veh HLA-DPB1 (11760878_x_at) / RFU SPINT1 (11716480_a_at) / Fold change /veh SPINT1 (11716480_a_at) / RFU GAP43 (11754022_s_at) / Fold change /veh GAP43 (11754022_s_at) / RFU A4GNT (11735810_at) / Fold change /veh A4GNT (11735810_at) / RFU PRB3 (11715151_x_at) / Fold change /veh PRB3 (11715151_x_at) / RFU TUBB4B (11761932_at) / Fold change /veh TUBB4B (11761932_at) / RFU CAPN14 (11732068_a_at) / Fold change /veh CAPN14 (11732068_a_at) / RFU TMCC2 (11721928_a_at) / Fold change /veh TMCC2 (11721928_a_at) / RFU IRGQ (11745062_a_at) / Fold change /veh IRGQ (11745062_a_at) / RFU FAM174B (11720279_a_at) / Fold change /veh FAM174B (11720279_a_at) / RFU TMPRSS4 (11748680_a_at) / Fold change /veh TMPRSS4 (11748680_a_at) / RFU FAM212B (11763350_a_at) / Fold change /veh FAM212B (11763350_a_at) / RFU PLEKHG5 (11743358_a_at) / Fold change /veh PLEKHG5 (11743358_a_at) / RFU ZSCAN30 (11745921_a_at) / Fold change /veh ZSCAN30 (11745921_a_at) / RFU CMKLR1 (11741424_a_at) / Fold change /veh CMKLR1 (11741424_a_at) / RFU LOC101060620 /// MAPK8IP1 (11723275_at) / Fold change /veh LOC101060620 /// MAPK8IP1 (11723275_at) / RFU SPTSSB (11747773_x_at) / Fold change /veh SPTSSB (11747773_x_at) / RFU PRSS12 (11739890_at) / Fold change /veh PRSS12 (11739890_at) / RFU BIN1 (11741810_x_at) / Fold change /veh BIN1 (11741810_x_at) / RFU WNT11 (11732464_a_at) / Fold change /veh WNT11 (11732464_a_at) / RFU C10orf10 (11716521_a_at) / Fold change /veh C10orf10 (11716521_a_at) / RFU C5orf56 (11738089_at) / Fold change /veh C5orf56 (11738089_at) / RFU CYB561 (11721691_x_at) / Fold change /veh CYB561 (11721691_x_at) / RFU ANKRD19P (11752326_a_at) / Fold change /veh ANKRD19P (11752326_a_at) / RFU OR2T12 /// OR2T33 /// OR2T8 (11738714_s_at) / Fold change /veh OR2T12 /// OR2T33 /// OR2T8 (11738714_s_at) / RFU VCAN (11748164_a_at) / Fold change /veh VCAN (11748164_a_at) / RFU JSRP1 (11732532_at) / Fold change /veh JSRP1 (11732532_at) / RFU KRTAP10-11 (11738290_x_at) / Fold change /veh KRTAP10-11 (11738290_x_at) / RFU MYO3A (11730013_a_at) / Fold change /veh MYO3A (11730013_a_at) / RFU EBF3 (11725865_a_at) / Fold change /veh EBF3 (11725865_a_at) / RFU CAMK2N1 (11719241_x_at) / Fold change /veh CAMK2N1 (11719241_x_at) / RFU C5orf56 (11738088_a_at) / Fold change /veh C5orf56 (11738088_a_at) / RFU OLFML3 (11715873_a_at) / Fold change /veh OLFML3 (11715873_a_at) / RFU LOC100653217 /// NTM (11731650_a_at) / Fold change /veh LOC100653217 /// NTM (11731650_a_at) / RFU MAPK11 (11762145_a_at) / Fold change /veh MAPK11 (11762145_a_at) / RFU FIZ1 (11724087_x_at) / Fold change /veh FIZ1 (11724087_x_at) / RFU OASL (11726364_x_at) / Fold change /veh OASL (11726364_x_at) / RFU SOX15 (11748057_x_at) / Fold change /veh SOX15 (11748057_x_at) / RFU CD79A (11719716_a_at) / Fold change /veh CD79A (11719716_a_at) / RFU HIST1H1D (11736915_at) / Fold change /veh HIST1H1D (11736915_at) / RFU CASKIN2 (11723855_a_at) / Fold change /veh CASKIN2 (11723855_a_at) / RFU LOC730098 (11760151_x_at) / Fold change /veh LOC730098 (11760151_x_at) / RFU OR4N2 (11742367_at) / Fold change /veh OR4N2 (11742367_at) / RFU PRRT2 (11749266_a_at) / Fold change /veh PRRT2 (11749266_a_at) / RFU SNX32 (11753110_a_at) / Fold change /veh SNX32 (11753110_a_at) / RFU CDHR5 (11726645_a_at) / Fold change /veh CDHR5 (11726645_a_at) / RFU RCAN1 (11760418_a_at) / Fold change /veh RCAN1 (11760418_a_at) / RFU FAM167A (11723789_a_at) / Fold change /veh FAM167A (11723789_a_at) / RFU FAM26E (11764081_at) / Fold change /veh FAM26E (11764081_at) / RFU ISYNA1 (11749810_s_at) / Fold change /veh ISYNA1 (11749810_s_at) / RFU ACY1 (11761880_at) / Fold change /veh ACY1 (11761880_at) / RFU 11764098_at / Fold change /veh 11764098_at / RFU SAMD14 (11745864_x_at) / Fold change /veh SAMD14 (11745864_x_at) / RFU NPB (11741838_a_at) / Fold change /veh NPB (11741838_a_at) / RFU TMPRSS6 (11731388_a_at) / Fold change /veh TMPRSS6 (11731388_a_at) / RFU KRTAP10-2 (11738614_at) / Fold change /veh KRTAP10-2 (11738614_at) / RFU ARHGAP8 /// PRR5-ARHGAP8 (11727945_x_at) / Fold change /veh ARHGAP8 /// PRR5-ARHGAP8 (11727945_x_at) / RFU KRTAP5-7 /// NADSYN1 (11734609_at) / Fold change /veh KRTAP5-7 /// NADSYN1 (11734609_at) / RFU RASL12 (11751679_a_at) / Fold change /veh RASL12 (11751679_a_at) / RFU CDKN2B (11736163_a_at) / Fold change /veh CDKN2B (11736163_a_at) / RFU PRF1 (11729649_at) / Fold change /veh PRF1 (11729649_at) / RFU, ZNF638 /// ZNF638-IT1 / Fold change vs veh, ZNF638 /// ZNF638-IT1 / RFU, PANK3 / Fold change vs veh, PANK3 / RFU, SH3YL1 / Fold change vs veh, SH3YL1 / RFU, ZEB2 / Fold change vs veh, ZEB2 / RFU, NRIP1 / Fold change vs veh, NRIP1 / RFU, PTTG1IP / Fold change vs veh, PTTG1IP / RFU, CAPN2 / Fold change vs veh, CAPN2 / RFU, MED14 / Fold change vs veh, MED14 / RFU, SNORA58 / Fold change vs veh, SNORA58 / RFU, C1orf63 / Fold change vs veh, C1orf63 / RFU, LRRFIP1 / Fold change vs veh, LRRFIP1 / RFU, NDUFAF7 / Fold change vs veh, NDUFAF7 / RFU, SLC12A2 / Fold change vs veh, SLC12A2 / RFU, IBTK / Fold change vs veh, IBTK / RFU, ESF1 / Fold change vs veh, ESF1 / Fold change vs veh, TMEM50B / RFU, TAOK1 / Fold change vs veh, TAOK1 / RFU, ACBD3 / Fold change vs veh, ACBD3 / RFU, TMA16 / Fold change vs veh, TMA16 / RFU, RWDD3 / Fold change vs veh, RWDD3 / RFU, BCAT1 / Fold change vs veh, BCAT1 / RFU, EDEM3 / Fold change vs veh, EDEM3 / RFU, TMEM33 / Fold change vs veh, TMEM33 / RFU, WDR75 / Fold change vs veh, WDR75 / RFU, AHCTF1 / Fold change vs veh, AHCTF1 / RFU, TFRC / Fold change vs veh, TFRC / RFU, ZDHHC17 / Fold change vs veh, ZDHHC17 / RFU, NOM1 / Fold change vs veh, NOM1 / RFU, ARL8B / Fold change vs veh, ARL8B / RFU, ZBTB11 / Fold change vs veh, ZBTB11 / RFU, TAMM41 / Fold change vs veh, TAMM41 / RFU, KIAA1704 /// LOC100996395 / Fold change vs veh, KIAA1704 /// LOC100996395 / RFU, ING1 / Fold change vs veh, ING1 / RFU, TRMT61B / Fold change vs veh, TRMT61B / RFU, FUBP3 / Fold change vs veh, FUBP3 / RFU, TP53 / Fold change vs veh, TP53 / RFU, TNKS2 / Fold change vs veh, TNKS2 / RFU, ZFP14 / Fold change vs veh, ZFP14 / RFU, ACTR2 / Fold change vs veh, ACTR2 / RFU, PPP3R1 / Fold change vs veh, PPP3R1 / RFU, PIK3R1 / Fold change vs veh, PIK3R1 / RFU, HNRNPA1 / Fold change vs veh, HNRNPA1 / RFU, RNF170 / Fold change vs veh, RNF170 / RFU, ZNF28 / Fold change vs veh, ZNF28 / RFU, RNGTT / Fold change vs veh, RNGTT / RFU, OGT / Fold change vs veh, OGT / RFU, BRD1 / Fold change vs veh, BRD1 / RFU, MARS / Fold change vs veh, MARS / RFU, ZNF655 / Fold change vs veh, ZNF655 / RFU, FAHD1 / Fold change vs veh, FAHD1 / RFU, BDP1 / Fold change vs veh, BDP1 / RFU, LRRCC1 / Fold change vs veh, LRRCC1 / RFU, ARID1A / Fold change vs veh, ARID1A / RFU, ZNF146 / Fold change vs veh, ZNF146 / RFU, ZNF330 / Fold change vs veh, ZNF330 / RFU, GPN3 / Fold change vs veh, GPN3 / RFU, C9orf123 / Fold change vs veh, C9orf123 / RFU, N4BP2L2 / Fold change vs veh, N4BP2L2 / RFU, ARFIP1 / Fold change vs veh, ARFIP1 / RFU, FAM179B / Fold change vs veh, FAM179B / RFU, BCL10 / Fold change vs veh, BCL10 / RFU, UHRF1BP1L / Fold change vs veh, UHRF1BP1L / RFU, BET1 / Fold change vs veh, BET1 / RFU, CNOT2 / Fold change vs veh, CNOT2 / RFU, ZNF268 / Fold change vs veh, ZNF268 / Fold change vs veh, ZNF507 / RFU, DGCR2 / Fold change vs veh, DGCR2 / RFU, WDSUB1 / Fold change vs veh, WDSUB1 / Fold change vs veh, HSP90B1 /// MIR3652 / RFU, ADSS / Fold change vs veh, ADSS / RFU, GK / Fold change vs veh, GK / RFU, ZNF148 / Fold change vs veh, ZNF148 / RFU, TAF9 / Fold change vs veh, TAF9 / RFU, SLC1A5 / Fold change vs veh, SLC1A5 / RFU, SLMO2 / Fold change vs veh, SLMO2 / RFU, ABCC4 / Fold change vs veh, ABCC4 / RFU, LOC101060439 /// RAP1B / Fold change vs veh, LOC101060439 /// RAP1B / RFU, RFX7 / Fold change vs veh, RFX7 / RFU, GTPBP10 / Fold change vs veh, GTPBP10 / RFU, CNEP1R1 / Fold change vs veh, CNEP1R1 / RFU, BIVM-ERCC5 /// ERCC5 / Fold change vs veh, BIVM-ERCC5 /// ERCC5 / RFU, ILF3 / Fold change vs veh, ILF3 / RFU 11762660_at / Fold change /veh 11762660_at / RFU VCAN (11757783_s_at) / Fold change /veh VCAN (11757783_s_at) / RFU DDX43 (11728927_at) / Fold change /veh DDX43 (11728927_at) / RFU KRT8 (11758188_x_at) / Fold change /veh KRT8 (11758188_x_at) / RFU NKD1 (11759106_at) / Fold change /veh NKD1 (11759106_at) / RFU SRD5A1 (11742802_a_at) / Fold change /veh SRD5A1 (11742802_a_at) / RFU TPSAB1 /// TPSB2 (11721975_s_at) / Fold change /veh TPSAB1 /// TPSB2 (11721975_s_at) / RFU GSTM3 (11746129_a_at) / Fold change /veh GSTM3 (11746129_a_at) / RFU IL23R (11737362_x_at) / Fold change /veh IL23R (11737362_x_at) / RFU TMEM51 (11727254_a_at) / Fold change /veh TMEM51 (11727254_a_at) / RFU PIWIL2 (11732686_x_at) / Fold change /veh PIWIL2 (11732686_x_at) / RFU ORM1 (11744905_x_at) / Fold change /veh ORM1 (11744905_x_at) / RFU CCDC152 (11743942_at) / Fold change /veh CCDC152 (11743942_at) / RFU ECM1 (11717891_a_at) / Fold change /veh ECM1 (11717891_a_at) / RFU IL23R (11748794_a_at) / Fold change /veh IL23R (11748794_a_at) / RFU TNFAIP8L3 (11732012_x_at) / Fold change /veh TNFAIP8L3 (11732012_x_at) / RFU MBOAT4 (11741988_at) / Fold change /veh MBOAT4 (11741988_at) / RFU 11764193_at / Fold change /veh 11764193_at / RFU TMEM53 (11763286_at) / Fold change /veh TMEM53 (11763286_at) / RFU MAGEB2 (11727129_at) / Fold change /veh MAGEB2 (11727129_at) / RFU TMEM200A (11744735_a_at) / Fold change /veh TMEM200A (11744735_a_at) / RFU CCDC152 (11751479_a_at) / Fold change /veh CCDC152 (11751479_a_at) / RFU FAM211A (11726209_a_at) / Fold change /veh FAM211A (11726209_a_at) / RFU RGS16 (11746705_a_at) / Fold change /veh RGS16 (11746705_a_at) / RFU VCAN (11755009_s_at) / Fold change /veh VCAN (11755009_s_at) / RFU RHOB (11743442_s_at) / Fold change /veh RHOB (11743442_s_at) / RFU RGS16 (11720943_a_at) / Fold change /veh RGS16 (11720943_a_at) / RFU RGS16 (11720944_at) / Fold change /veh RGS16 (11720944_at) / RFU, VPS4B / Fold change vs veh, VPS4B / RFU, CREB1 / Fold change vs veh, CREB1 / RFU, DNAJC13 / Fold change vs veh, DNAJC13 / RFU, GNAQ / Fold change vs veh, GNAQ / RFU, CDK5R1 / Fold change vs veh, CDK5R1 / RFU, ZRANB3 / Fold change vs veh, ZRANB3 / RFU, CUL4A / Fold change vs veh, CUL4A / RFU, CCNY / Fold change vs veh, CCNY / RFU, UFL1 / Fold change vs veh, UFL1 / RFU, COG3 / Fold change vs veh, COG3 / RFU, DIAPH2 / Fold change vs veh, DIAPH2 / RFU, SKA2 / Fold change vs veh, SKA2 / RFU, AFF3 / Fold change vs veh, AFF3 / RFU, LMF1 / Fold change vs veh, LMF1 / RFU, IPO11 / Fold change vs veh, IPO11 / RFU, DFFB / Fold change vs veh, DFFB / RFU, FOXP1 / Fold change vs veh, FOXP1 / RFU, CARD8 / Fold change vs veh, CARD8 / RFU, STRN3 / Fold change vs veh, STRN3 / RFU, ADK / Fold change vs veh, ADK / RFU, RASSF2 / Fold change vs veh, RASSF2 / RFU, WIPF1 / Fold change vs veh, WIPF1 / RFU, LARP1B / Fold change vs veh, LARP1B / RFU, RASA1 / Fold change vs veh, RASA1 / RFU, RB1 / Fold change vs veh, RB1 / RFU, PPFIA1 / Fold change vs veh, PPFIA1 / RFU, MAT2A / Fold change vs veh, MAT2A / RFU, CCT5 / Fold change vs veh, CCT5 / RFU, WDR92 / Fold change vs veh, WDR92 / RFU, CUX1 / Fold change vs veh, CUX1 / RFU, TTC7A / Fold change vs veh, TTC7A / RFU, TMEM135 / Fold change vs veh, TMEM135 / RFU, DEPTOR / Fold change vs veh, DEPTOR / RFU, CPM / Fold change vs veh, CPM / RFU, DNAJB6 / Fold change vs veh, DNAJB6 / RFU, CACNA2D3 / Fold change vs veh, CACNA2D3 / RFU, DTX4 / Fold change vs veh, DTX4 / RFU, TFCP2 / Fold change vs veh, TFCP2 / RFU, GMCL1 /// GMCL1P1 / Fold change vs veh, GMCL1 /// GMCL1P1 / RFU, AEBP2 / Fold change vs veh, AEBP2 / RFU, SNHG1 /// SNORD22 /// SNORD25 /// SNORD26 /// SNORD27 /// SNORD28 /// SNORD29 /// SNORD31 / Fold change vs veh, SNHG1 /// SNORD22 /// SNORD25 /// SNORD26 /// SNORD27 /// SNORD28 /// SNORD29 /// SNORD31 / Fold change (Aza/veh), C12orf56 (ProbeSet 11735607_a_at) / Fold change (ACY-1035/veh), C12orf56 (ProbeSet 11735607_a_at) / Fold change (Aza/veh), FGFR1OP (ProbeSet 11751329_s_at) / Fold change (ACY-1035/veh), FGFR1OP (ProbeSet 11751329_s_at) / Fold change (Aza/veh), VPS36 (ProbeSet 11739960_a_at) / Fold change (ACY-1035/veh), VPS36 (ProbeSet 11739960_a_at) / RFU SYPL1 (11715823_x_at) / Fold change /veh SYPL1 (11715823_x_at) / RFU IGFBP7 (11715501_s_at) / Fold change /veh IGFBP7 (11715501_s_at) / RFU REEP3 (11722064_at) / Fold change /veh REEP3 (11722064_at) / RFU IGLL1 (11728026_x_at) / Fold change /veh IGLL1 (11728026_x_at): dose or concentration left out as unconfirmed
Conditions: MV-4-11 cells, 48 hours

SMILES: Nc1ncn([C@@H]2O[C@H](CO)[C@@H](O)[C@H]2O)c(=O)n1 [azacitidine]
- Fold change /veh GIMAP4 (11747438_a_at): 1.07
